Reference: paper PMC9403987 (Frontiers in Oncology, 2022)

Key:
Test in all cases: Cell proliferation assay
BRL-3a = type: cell-based, Rattus norvegicus; settings: liver, normal, 72 hours
Description: (§1) To quantify cell proliferation, either the nuclei of live cells were counted following staining with 4’,6-diamidino-2-phenylindole (DAPI; Sigma-Aldrich, Burlington, MA, USA), or metabolically active cells were detected using a CellTiter-Glo assay (Promega Corporation, Madison, WI, USA). Cells from a range of human and mammalian tumor cell lines (American Type Culture Collection, Manassas, VA, USA) were seeded at 4000 cells per well in 100 μL of culture medium in a 96-well plate and incubated overnight at 37°C with 5% CO2. […] In the DAPI staining method, cells were washed using 1× phosphate-buffered saline (PBS; Gibco Thermo Fisher Scientific, Waltham, MA, USA), fixed with 4% formaldehyde, permeabilized with 0.2% Triton X-100 (Sigma-Aldrich), washed again, and stained with 1 μg/mL DAPI to visualize cell nuclei. Cells were washed with 1× PBS three times, and 100 μL 1× PBS was added to each well. Plates were scanned using an IN Cell Analyzer 2200 (GE Healthcare Life Sciences, Chicago, IL, USA) and the number of cells per well was recorded. In the CellTiter-Glo assay, 60 μL of CellTiter-Glo luminescent solution was added to each well after incubation with the test compounds, and the assay plate was scanned using a Tecan Infinite M1000 PRO microplate reader (Tecan Group AG, Männedorf, Switzerland) to record luminescent signals.

SW620 = type: cell-based, Homo sapiens; settings: SW620, colon carcinoma, 72 hours
Description: as §1

NCI-H1299 = type: cell-based, Homo sapiens; settings: NCI-H1299, lung, NSCLC, 72 hours
Description: as §1

NCI-H1838 = type: cell-based, Homo sapiens; settings: NCI-H1838, lung, NSCLC, 72 hours
Description: as §1

NCI-H1975 = type: cell-based, Homo sapiens; settings: NCI-H1975, lung, NSCLC, 72 hours
Description: as §1

NCI-H1792 = type: cell-based, Homo sapiens; settings: NCI-H1792, lung carcinoma, 72 hours
Description: as §1

SNU-475 = type: cell-based, Homo sapiens; settings: SNU-475, liver, hepatocellular carcinoma, 72 hours
Description: as §1

PC-9 = type: cell-based, Homo sapiens; settings: PC-9, lung carcinoma, 72 hours
Description: as §1

NCI-H460 = type: cell-based, Homo sapiens; settings: NCI-H460, lung carcinoma, 72 hours
Description: as §1

Hep G2 = type: cell-based, Homo sapiens; settings: Hep G2, liver, hepatocellular carcinoma, 72 hours
Description: as §1

Du4475 = type: cell-based, Homo sapiens; settings: Du4475, breast carcinoma, 72 hours
Description: as §1

T47D = type: cell-based, Homo sapiens; settings: breast carcinoma, 72 hours
Description: as §1

NCI-H1581 = type: cell-based, Homo sapiens; settings: NCI-H1581, lung, NSCLC, 72 hours
Description: as §1

NCI-H358 = type: cell-based, Homo sapiens; settings: NCI-H358, lung, NSCLC, 72 hours
Description: as §1

SNU-739 = type: cell-based, Homo sapiens; settings: SNU-739, liver, hepatocellular carcinoma, 72 hours
Description: as §1

LN229 = type: cell-based, Homo sapiens; settings: LN229, brain, glioblastoma, 72 hours
Description: as §1

LoVo = type: cell-based, Homo sapiens; settings: colorectal carcinoma, 72 hours
Description: as §1

SK-HEP-1 = type: cell-based, Homo sapiens; settings: SK-HEP-1, liver, hepatocellular carcinoma, 72 hours
Description: as §1

MDA-MB-231 = type: cell-based, Homo sapiens; settings: MDA-MB-231, breast carcinoma, 72 hours
Description: as §1

Caco-2 = type: cell-based, Homo sapiens; settings: Caco-2, colorectal carcinoma, 72 hours
Description: as §1

HCCC9810 = type: cell-based, Homo sapiens; settings: HCCC9810, liver, hepatocellular carcinoma, 72 hours
Description: as §1

HLF = type: cell-based, Homo sapiens; settings: lung, epidermoid carcinoma, 72 hours
Description: as §1

MHCC97 = type: cell-based, Homo sapiens; settings: MHCC97, liver, hepatocellular carcinoma, 72 hours
Description: as §1

NCI-H1155 = type: cell-based, Homo sapiens; settings: NCI-H1155, lung, NSCLC, 72 hours
Description: as §1

U87/DK = type: cell-based, Homo sapiens; settings: brain, glioblastoma, 72 hours
Description: as §1

M059K = type: cell-based, Homo sapiens; settings: brain, glioblastoma, 72 hours
Description: as §1

Work on `CCN1CCN(Cc2ccc(Nc3ncc(F)c(-c4cc(F)c5nc(C)n(C(C)C)c5c4)n3)nc2)CC1` [Abemaciclib, abemaciclib, reference compound] yielded an IC50 (BRL-3a; Rattus norvegicus) of 10000 nM, an IC50 (SW620; Homo sapiens, SW-620) of 10 nM and an IC50 (NCI-H1299; Homo sapiens) of 463 nM. For the same compound, the IC50 (NCI-H1838; Homo sapiens) was 90 nM, the IC50 (NCI-H1975; Homo sapiens) was 112 nM and the IC50 (NCI-H1792; Homo sapiens) was 23 nM. It also gave an IC50 (SNU-475; Homo sapiens) of 195 nM, an IC50 (PC-9; Homo sapiens) of 457 nM and an IC50 (NCI-H460; Homo sapiens) of 654 nM. For the same compound, the IC50 (Hep G2; Homo sapiens, HepG2) was 3200 nM, the IC50 (Du4475; Homo sapiens, DU-4475) was 10000 nM and the IC50 (T47D; Homo sapiens) was 12 nM. It also gave an IC50 (NCI-H1581; Homo sapiens) of 3230 nM, an IC50 (NCI-H358; Homo sapiens) of 44 nM and an IC50 (SNU-739; Homo sapiens) of 383 nM. The IC50 (LN229; Homo sapiens, LN-229) was 35 nM, the IC50 (LoVo; Homo sapiens) was 25 nM and the IC50 (SK-HEP-1; Homo sapiens, SK-HEP1) was 6 nM. For the same compound, the IC50 (MDA-MB-231; Homo sapiens) was 48 nM, the IC50 (Caco-2; Homo sapiens) was 395 nM and the IC50 (HCCC9810; Homo sapiens) was 71 nM. The IC50 (HLF; Homo sapiens) was 4950 nM, the IC50 (MHCC97; Homo sapiens) was 1100 nM and the IC50 (NCI-H1155; Homo sapiens) was 2410 nM. The IC50 (U87/DK; Homo sapiens) was 15 nM and the IC50 (M059K; Homo sapiens) was 871 nM.

`CC1=Nc2c(F)cc(-c3nc(Nc4ccc(C5CCN(C)CC5)cn4)ncc3F)cc2C12CCCC2` [GLR2007] was tested, and the IC50 (BRL-3a) was 1870 nM, the IC50 (SW620) was 10 nM and the IC50 (NCI-H1299) was 564 nM. The IC50 (NCI-H1838) was 48 nM, the IC50 (NCI-H1975) was 10 nM and the IC50 (NCI-H1792) was 3 nM. For the same compound, the IC50 (SNU-475) was 85 nM, the IC50 (PC-9) was 180 nM and the IC50 (NCI-H460) was 235 nM. The IC50 (Hep G2) was 2550 nM, the IC50 (Du4475) was 2040 nM and the IC50 (T47D) was 1 nM. The IC50 (NCI-H1581) was 1120 nM, the IC50 (NCI-H358) was 17 nM and the IC50 (SNU-739) was 100 nM. The IC50 (LN229) was 17 nM, the IC50 (LoVo) was 13 nM and the IC50 (SK-HEP-1) was 36 nM. For the same compound, the IC50 (MDA-MB-231) was 44 nM, the IC50 (Caco-2) was 453 nM and the IC50 (HCCC9810) was 30 nM. For the same compound, the IC50 (HLF) was 2010 nM, the IC50 (MHCC97) was 353 nM and the IC50 (NCI-H1155) was 1820 nM. It also gave an IC50 (U87/DK) of 3 nM and an IC50 (M059K) of 3250 nM.
